Consider 35 molecules from ChEMBL document CHEMBL1127021, “Structure-activity relationship of a series of phenylureas linked to 4-phenylimidazole. Novel potent inhibitors of acyl-CoA:cholesterol O-acyltransferase with antiatherosclerotic activity. 2” (J Med Chem, 1993).

The target of assay [1] is T1, O-acyltransferase (Oryctolagus cuniculus, UniProt G1SFD9). Put plainly: Inhibition against acyl coenzyme A:cholesterol acyltransferase derived from rabbit intestine microsomes.
The target in assay [2] is T2, Acyl-CoA:cholesterol acyltransferase (Oryctolagus cuniculus, UniProt Q95214).
T2 sequence (Q95214 whole entry): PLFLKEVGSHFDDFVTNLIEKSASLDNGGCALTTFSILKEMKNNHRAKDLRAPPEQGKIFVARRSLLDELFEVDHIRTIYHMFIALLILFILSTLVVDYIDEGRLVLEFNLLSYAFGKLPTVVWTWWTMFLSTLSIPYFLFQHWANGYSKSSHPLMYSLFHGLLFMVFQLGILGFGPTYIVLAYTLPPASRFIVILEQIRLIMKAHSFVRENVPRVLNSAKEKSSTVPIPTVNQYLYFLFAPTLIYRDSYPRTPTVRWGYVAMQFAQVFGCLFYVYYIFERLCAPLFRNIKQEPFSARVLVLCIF
Put plainly: Tested for inhibition against Acyl coenzyme A:cholesterol acyltransferase derived from rabbit aorta homogenate (>, denotes no effect at the concentration indicated).

For assay [3], the system named is Rattus norvegicus. Nature of the assay: Cholesterol lowering activity in rats after a dose of 4 mg/kg once a day for 2 days. In kind it is functional.
Assay [4] relates to Rattus norvegicus. Put plainly: Cholesterol lowering activity in rats after a dose of 1 mg/kg once a day for 2 days. Format: functional.
The target of assay [5] is T2, Acyl-CoA:cholesterol acyltransferase. Put plainly: Inhibition against acyl coenzyme A:cholesterol acyltransferase derived from rabbit aorta homogenate. In kind it is tissue-based.
Assay [6] has as its target T1, O-acyltransferase. Nature of the assay: Tested for inhibition against Acyl coenzyme A:cholesterol acyltransferase derived from rabbit intestine microsomes (>, denotes no effect at the concentration indicated).
For assay [7], the species on record is Rattus norvegicus. Put plainly: Tested for hypocholesterolemic activity required to decrease serum total cholesterol. Format: functional.
Assay [8] concerns Rattus norvegicus. Nature of the assay: Tested for cholesterol lowering activity in rats after a dose of 4 mg/kg once a day for 2 days (at a dose of 1 mg/kg once a day for 2 days). In kind it is functional.

Where only a bound is given, the exact number is not on record here.

T1 sequence (G1SFD9 1-524): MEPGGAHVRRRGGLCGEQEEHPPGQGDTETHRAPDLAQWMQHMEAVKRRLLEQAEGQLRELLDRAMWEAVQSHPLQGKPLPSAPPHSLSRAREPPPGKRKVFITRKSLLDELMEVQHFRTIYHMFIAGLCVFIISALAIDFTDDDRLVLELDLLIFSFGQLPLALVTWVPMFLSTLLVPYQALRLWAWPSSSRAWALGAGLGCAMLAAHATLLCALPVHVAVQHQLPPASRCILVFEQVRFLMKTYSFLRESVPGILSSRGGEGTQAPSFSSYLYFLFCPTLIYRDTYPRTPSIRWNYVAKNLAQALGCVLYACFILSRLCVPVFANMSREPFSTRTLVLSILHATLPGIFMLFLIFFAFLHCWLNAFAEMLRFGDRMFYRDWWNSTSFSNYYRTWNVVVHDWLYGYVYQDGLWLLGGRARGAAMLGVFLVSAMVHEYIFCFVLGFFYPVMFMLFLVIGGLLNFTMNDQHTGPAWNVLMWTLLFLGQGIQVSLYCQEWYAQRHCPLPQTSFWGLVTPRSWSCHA

As for `COCCCNC(=O)Nc1c(C)cccc1OCCCn1cnc(-c2ccccc2)c1C`, the IC50 in assay [1] was 300 nM; in assay [2], above 1000 nM.
As for `CCCCCNC(=O)Nc1c(C)cccc1OCCCn1cnc(-c2ccccc2C)c1`, the Cholesterol reduction in assay [3] is -48%; in assay [4], -25%. In addition, the IC50 in assay [1] stood at 260 nM; in assay [5] it was 100 nM.
The matching figures for `CCCCCNC(=O)Nc1c(OCCCn2cnc(-c3ccccc3)c2C)cccc1C(C)C`: -59%, -40%, 71 nM and 45 nM.
For `CCCCCNC(=O)Nc1c(CO)cccc1OCCCn1cnc(-c2ccccc2)c1C`, the IC50 was above 1000 nM in assay [6] and 3300 nM in assay [5].
As to `CCCCCCNC(=O)Nc1c(C)cccc1OCCCn1cnc(-c2ccccc2)c1C`, the Cholesterol reduction is reported as -46% in assay [3] and -43% in assay [4]. For the same molecule, the IC50 in assay [1] stood at 84 nM; in assay [5], 68 nM.
The matching figures for `CCCCCNC(=O)Nc1c(CCC)cccc1OCCCn1cnc(-c2ccccc2)c1C`: -50%, -34%, 170 nM and 98 nM.
The matching figures for `Cc1cccc(OCCCn2cnc(-c3ccccc3)c2C)c1NC(=O)NC1CCCCC1`: -53%, -42%, 100 nM and 180 nM.
The like results for `CCCCCNC(=O)Nc1c(C)cccc1OCCCn1cnc(-c2ccccc2[N+](=O)[O-])c1` were, in that order, -66%, -46%, 210 nM and 170 nM.
For `CCCCCNC(=O)Nc1c(C)cccc1OCCCn1cnc(-c2ccccc2)c1CO`, the Cholesterol reduction is given as -55% in assay [3] and -29% in assay [4]. The values for the IC50 in assay [1] and in assay [5] were 210 nM and 200 nM, respectively.
In assay [7], `CCCCNC(=O)Nc1c(C)cccc1OCCCn1cnc(-c2ccccc2)c1CC` came in with an ED30 of 0.5 mg/kg. For the same molecule, the Cholesterol reduction in assay [4] is recorded as -46%. This molecule yielded an IC50 in assay [5] of 160 nM.
On to `CCCCNC(=O)Nc1c(C)cccc1OCCCn1cnc(-c2ccccc2)c1C`, for which the Cholesterol reduction in assay [3] was -45%; in assay [4] it was -34%. Moreover, the values for the IC50 in assay [1] and in assay [5] were 73 nM and 480 nM, respectively.
With `CCCCCNC(=O)Nc1c(C)cccc1OCCCn1cnc(-c2ccccc2)c1CCC`, the figures for the Cholesterol reduction in assay [3] and in assay [4] were -56% and -49%, respectively. Besides, the IC50 in assay [1] stood at 160 nM; in assay [5] it was 63 nM.
The matching figures for `CCCCCNC(=O)Nc1c(CC)cccc1OCCCn1cnc(-c2ccccc2)c1C`: -60%, -51%, 80 nM and 44 nM.
Regarding `CCCCNC(=O)Nc1c(C)cccc1OCCCn1cnc(-c2ccccc2)c1C(C)C`, the ED30 in assay [7] was 0.4 mg/kg. Besides, the IC50 in assay [1] was 130 nM; in assay [5] it was 12 nM. Moreover, the Cholesterol reduction in assay [4] is reported as -52%.
Take `CCCCCNC(=O)Nc1c(C)cccc1OCCCn1cnc(-c2ccc([N+](=O)[O-])cc2)c1`: the Cholesterol reduction in assay [3] is on record as -33%; in assay [4], -31%. Besides, the IC50 in assay [1] was found to be 70 nM; in assay [5] it was 560 nM.
`CCCCCNC(=O)Nc1c(C)cccc1OCCCn1cnc(-c2ccc(F)cc2F)c1`: the Cholesterol reduction in assay [3] was -48%; in assay [4], -23%. In addition, the IC50 was found to be 290 nM in assay [1] and 120 nM in assay [5].
Turning to `CCCCCNC(=O)Nc1c(C)cccc1OCCCn1cnc(-c2ccc(Cl)cc2)c1`, the Cholesterol reduction was -59% in assay [3] and -43% in assay [4]. Also, the IC50 was found to be 120 nM in assay [1] and 260 nM in assay [5].
In turn, `CCCCCNC(=O)Nc1c(OCCCn2cnc(-c3ccccc3)c2C)cccc1N(C)C` had an ED30 in assay [7] of 1.9 mg/kg. The Cholesterol reduction in assay [3] is listed as -42%.
As to `CCCCCNC(=O)Nc1c(C)cccc1OCCCn1cnc(-c2ccccc2)c1COC`, the Cholesterol reduction in assay [3] is -47%; in assay [4] it was 18%. In addition, the concentration for half-maximal inhibition (IC50) turned out to be 480 nM in assay [1] and 290 nM in assay [5].
With `CCCCCNC(=O)Nc1c(C)cccc1OCCCn1cnc(-c2ccccc2)c1`, the Cholesterol reduction is listed as -52% in assay [3] and -28% in assay [4]. The IC50 in assay [1] turned out to be 250 nM; in assay [5], 310 nM.
For the molecule `Cc1cccc(OCCCn2cnc(-c3ccccc3)c2)c1NC(=O)NCC(C)(C)C`, the IC50 in assay [1] came out at 320 nM; in assay [5], 73 nM. Also, in assay [4], the Cholesterol reduction was -46%.
The matching figures for `CCCCCNC(=O)Nc1c(C)cccc1OCCCn1cnc(-c2cccc([N+](=O)[O-])c2)c1`: 130 nM, 290 nM and -15%.
On to `CCCCCNC(=O)Nc1c(C)cccc1OCCCn1cnc(-c2ccccc2)c1CSC`, for which the Cholesterol reduction is recorded as -33% in assay [3] and -20% in assay [4]. Besides, the IC50 in assay [1] worked out at 540 nM; in assay [5], 120 nM.
As to `CCc1c(-c2ccccc2)ncn1CCCOc1cccc(C)c1NC(=O)NCC(C)(C)C`, the IC50 in assay [1] is 460 nM; in assay [5] it was 68 nM. For the same molecule, the Cholesterol reduction in assay [4] was -55%.
On to `CCCCCNC(=O)Nc1c(C)cccc1OCCCn1cnc(-c2ccccc2)c1C`, for which the values for the IC50 in assay [1] and in assay [5] were 50 nM and 120 nM, respectively. The Cholesterol reduction was -51% in assay [8] and -38% in assay [4].
As to `Cc1cccc(OCCCn2cnc(-c3ccccc3)c2Cl)c1NC(=O)NCC(C)(C)C`, the IC50 in assay [1] worked out at 200 nM; in assay [5] it was 48 nM. For the same molecule, the Cholesterol reduction in assay [4] is on record as -43%.
On to `CCCCCNC(=O)Nc1c(C)cccc1OCCCn1cnc2c1CCc1ccccc1-2`, for which the Cholesterol reduction in assay [3] is -56%; in assay [4], -30%. For the same molecule, the IC50 in assay [1] and in assay [5] was 220 nM throughout.
Turning to `Cc1cccc(OCCCn2cnc(-c3ccccc3)c2)c1NC(=O)NCCC(C)C`, the results for the IC50 in assay [1] and in assay [5] were 230 nM and 370 nM, respectively. Moreover, the Cholesterol reduction in assay [4] was -41%.
Regarding `CCOCCNC(=O)Nc1c(C)cccc1OCCCn1cnc(-c2ccccc2)c1C`, the results for the IC50 in assay [1] and in assay [2] were 340 nM and above 1000 nM, respectively.
On to `Cc1cccc(OCCCn2cnc(-c3ccccc3)c2C)c1NC(=O)NCCC(C)C`, for which the Cholesterol reduction in assay [3] is -63%; in assay [4] it was -59%. Also, the IC50 in assay [1] came out at 140 nM; in assay [5], 100 nM.
`CCCCCCCN(Cc1ccc(CC(C)(C)C)cc1)C(=O)Nc1ccc(F)cc1F` [CL-277082] gave an ED30 in assay [7] of 1.5 mg/kg.
For `CCCCNC(=O)Nc1c(C)cccc1OCCCn1cnc(-c2ccccc2)c1Cl`, the IC50 in assay [1] is 55 nM; in assay [5], 210 nM. Further, in assay [4], the Cholesterol reduction was -40%.
Consider `CCCCCNC(=O)Nc1c(C)cccc1OCCCn1cnc(-c2ccccc2)c1C(C)C`, for which the values for the Cholesterol reduction in assay [3] and in assay [4] were -49% and -30%, respectively. Besides, the IC50 in assay [1] was 180 nM; in assay [5], 31 nM.
In the case of `Cc1cccc(OCCCn2cnc(-c3ccccc3)c2C(C)C)c1NC(=O)NCCC(C)C`, the IC50 in assay [1] turned out to be 280 nM; in assay [5] it was 19 nM. Besides, in assay [4], the Cholesterol reduction is recorded as -40%.
For the molecule `CCCCCNC(=O)Nc1c(C)cccc1OCCCn1cnc(-c2ccccc2)c1CC`, the Cholesterol reduction is reported as -49% in assay [3] and -28% in assay [4]. The figures for the IC50 in assay [1] and in assay [5] were 170 nM and 79 nM, respectively.
